Among the data in patent US6790867B2, “Compositions and method for treating infection in cattle and swine” (Schering-Plough Animal Health Corporation, priority 2002, dated 2004) are AUC(0-inf), Cmax and Tmax values, retold here.

The nature of this data set: in vivo. Further details: species or system cattle. The note with it: both sexes, bovine, 2.2 mg/kg. The protocol:
In a second study, the pharmacokinetic profile of the second active component in Formulation 1A, flunixin, was examined. The pharmacokinetic profile of flunixin was evaluated following administration to cattle as the approved single entity flunixin meglumine product, […], and as the combination product Formulation 1A. This study was conducted in four phases using six cattle (3 males, 3 females). All animals received […] intravenously (IV) in the first phase. This was followed, after a washout period, by the administration of […] intramuscularly (IM) to 3 cows and […] subcutaneously (SQ) to 3 cows. In the next phase the animals were crossed over and received […] or SQ. In the final phase, all six cattle received the flunixin/florfenicol combination product (Formulation 1A). All animals received flunixin at a dose of 2.2 mg/kg, regardless of the formulation or route of administration. Blood samples for determination of flunixin concentration were collected at 0, 0.17, 0.5, 0.75, 1, 2, 3, 4, 6, 8, 12 and 24 hours after dosing. At the final phase of the study, the 6 cattle were given Formulation 1A at a dose of 10 mL per 75 kg SQ (equivalent to 40 mg/kg of florfenicol and 2.2 mg/kg of flunixin). The kinetics of flunixin when administered as Formulation 1A are different from the kinetics of flunixin when administered as […]. As such, the clinical dose response of Formulation 1A were ascertained in a subsequent study (described below).

SMILES strings stand for the structures.

As for `Cc1c(Nc2ncccc2C(=O)O)cccc1C(F)(F)F` [Flunixin, flunixin meglumine], for the setting “im”, the total exposure AUC(0-inf) amounted to 10500 ng·h/mL, the Cmax is 3240 ng/mL and the Tmax came to 30.6 min. For the same compound, the AUC(0-inf) (iv) came to 13600 ng·h/mL. Where the note is “sc”, the AUC(0-inf) worked out at 10900 ng·h/mL, the maximum concentration (Cmax) stood at 2860 ng/mL and the Tmax came out at 32.4 min.

As a reminder, the AUC(0-inf) is the area under the concentration-time curve extrapolated to infinity. What is called Cmax is the peak of the concentration-time curve. A word on the Tmax: it is the time from dosing to the highest level.
